Data set [1] deals with MOC1 tumors. In words: MOC orthotopic murine model of oral cancer (Example 9). The note with it: established 4-5 mm MOC1 tumors, single 30 μl intratumoral injection.
Description: MOC orthotopic murine model of oral cancer. MOC1 tumors were established by injecting 2×10^6 cells (70%:30% cells: Matrigel®Matrix) into the maxillary vestibule of the left oral cavity in C57BL/6J mice. […] Tumor growth was monitored by tumor size measurements (in diameter) taken at least two times per week using digital calipers to measure the longest dimension (single dimension). Data was then analyzed for Kaplan-Meier survival and tumor growth curves. […] Excessive tumor burden, defined as tumor diameter reaching 12 mm, tumor ulceration, or a weight loss of greater than 20% were factors that were considered for all endpoints in tumor growth and survival data.
Statistical methods. Statistical analyses were performed using Prism 7.0 (GraphPad, San Diego, CA). Statistical analyses for Kaplan-Meier survival curves were performed using the Log-rank/Mantel-Cox test. Statistical significance for tumor growth curves was determined by a two-way ANOVA test followed by selected comparison using Tukey's multiple comparison tests with multiple comparison correction. All p values were two-sided and p values less than 0.05 were considered significant.
Data set [2] relates to MOC1 cells. In words: Live-dead viability of MOC1 cells on L-NIL-MDP hydrogel. It is filed as cell-based, mouse. The following applies: cultured on hydrogel over 7 days. On the procedure: Cell culture. The murine oral cancer cell line, MOC1 was provided by Dr. Ravindra Uppaluri (Dana-Farber Cancer Institute, Harvard University, Boston, MA) and maintained as previously described (Judd et al., 2012). For in vitro experiments, mouse MOC1 cells were cultured at 37° C. with 5% CO2 in media routinely used for maintaining this cell line (Judd et al., 2012). For live-dead viability studies done using 2-D culture, peptide hydrogel 70 μL in volume (thickness approximately 1.75 mm) were pipetted into the wells of Lab-Tek 16 well chamber slides (Thermo Fisher, Rochester, NY). The gels were pipetted carefully into the bottom of the wells, and the plates were gently tapped down onto the bench top before shear recovery to flatten the pipetted gels and facilitate uniform spreading of the material. After pipetting, time was allowed for the samples to shear recover (5-10 min) before the addition of 200 μL cell media and 5,000 MOC1 cells. Each time point (days 1, 3, 7) had separate slides prepared with duplicate gels. Cell media was replaced every 2 days, carefully pipetting to avoid dislodging the gel material. […] Image processing was done with NIS Elements (Nikon Instruments, Melville, NY), and Imaris Cell Counting software (Bitplane, Concord, MA) was used to quantify live-dead percentages.

The nature of data set [3]: Live-dead viability of RAW 264.7 cells on MDP hydrogels. It is filed as cell-based, mouse. The following applies: mouse, RAW 264.7 cells cultured on peptide hydrogel (2-D culture); RAW macrophages on 1 wt. % hydrogel, after three days; read-out: cell survival. As for the experimental part:
(§1) Cell culture. For in vitro experiments, mouse RAW 264.7 cells (ATCC TIB-71) were grown in DMEM media supplemented with 10% Heat-Inactivated Fetal Bovine Serum (HI-FBS), L-glutamine, sodium pyruvate, and 1% penicillin-streptomycin. Cells were cultured at 37° C. with 5% CO2 and subcultured using scraping.
(§2) For 2-D culture live-dead viability studies, peptide hydrogels were pipetted into 0.4 cm^2 wells of Lab-Tek 16 well glass chamber slides (Thermo Fischer, Rochester, NY). Gels were pipetted to produce 70 μL pucks with a thickness of 1.75 mm. The gels were carefully pipetted into the bottom of each well and tapped before shear recovery to create flat gel profiles. After pipetting, the samples were allowed to shear recover for 5-10 min before adding 200 μL cell media and 10,000 RAW 264.7 cells. For each experiment time point (days 1 and 3) separate slides with duplicate gels were created. The cell media was changed every 2 days, taking care to not disturb or dislodge the gel material.
(§3) At each desired time point the following procedure was used to stain the cells for live-dead analysis. Live-dead staining solution was prepared in DPBS (Thermo Fisher Scientific, Rockford, IL) with 2 μM Calcein AM (Life Technologies), 4 μM Ethidium homodimer (Life Technologies), and 5 μg/mL Hoechst 33342 (BD Biosciences, San Jose, CA). Cell media was removed from the top of the hydrogel samples, which were then washed with PBS. Samples were then stained with 100 μL of prepared solution by incubating at 37° C. with 5% CO2 for 60 min while protected from light. After staining, the gels were removed from the glass chamber slides and placed in PBS before immediately imaging by confocal. Gels were analyzed by z-stack imaging using a Nikon A1 Confocal Microscope with a 40× water objective (405 nm blue channel laser, 488 nm green channel laser, 561 nm red channel laser). Image processing was done using NIS Elements, and Imaris Cell Counting software was used to quantify live-dead percentages.

Data set [4] relates to RAW 264.7 cells. Described as above. It is filed as cell-based, mouse. The note with it: RAW macrophages on 1 wt. % hydrogel, one to three days. As for the experimental part: as §1, §2, §3
A short description of data set [5]: Subcutaneous hydrogel implants, histology (persistence, degradation, host response). It is filed as in vivo, mice. The note with it: 3-21 days. As for the experimental part: Subcutaneous experiments and histology. C57BL/6J female mice were purchased from The Jackson Laboratory at age 8-12 weeks for subcutaneous characterization experiments. Mice were housed under specific pathogen-free conditions in standard temperature and lighting conditions with free access to food and water, and experiments were conducted with approval of the Institutional Animal Care and Use Committee (IACUC) at Rice University and according to NIH guidelines. Mice were injected with 100 μL MDP hydrogels in each of four separate sites in the subcutaneous space of the dorsal flank after the skin was shaved and sterilized with alcohol. At days 3, 7, 14, and 21 the mice were euthanized and the dorsal skin around the entire implant was removed, fixed overnight in 10% neutral buffered formalin, processed and paraffin embedded, and finally sectioned at […] thickness for staining using standard Masson's trichrome or hematoxylin and eosin (H&E) procedures, as well as immunohistochemical analyses (e.g., anti-nitrotyrosine IHC, or α-SMA blood vessel analysis).
Evaluation of material biocompatibility, degradation, and immune response profile in vivo was performed by histological analysis of hydrogel implants injected subcutaneously in healthy mice. […]

*1 amine or outer side, *2 acyl side, *3 side chain or, on linkers, in order; H or OH if unused. Where a SMILES comes first, the peptide text is derived from it. [ ]: non-standard residue; d: D form. X1 = CC(=N)NCCCC[C@H](N[*:1])C(=O)[*:2]

For the compound `CC(=N)NCCCC[C@H](NC(=O)[C@H](CCCCNC(C)=N)NC(=O)[C@H](CC(C)C)NC(=O)[C@H](CO)NC(=O)[C@H](CC(C)C)NC(=O)[C@H](CO)NC(=O)[C@H](CC(C)C)NC(=O)[C@H](CO)NC(=O)[C@H](CC(C)C)NC(=O)[C@H](CO)NC(=O)[C@H](CC(C)C)NC(=O)[C@H](CO)NC(=O)[C@H](CC(C)C)NC(=O)[C@H](CO)NC(=O)[C@H](CCCCNC(C)=N)NC(=O)[C@H](CCCCNC(C)=N)NC(C)=O)C(N)=O` [L-NIL-MDP] (Ac-[X1][X1]SLSLSLSLSLSL[X1][X1]-NH2), the median survival in data set [1] is listed as 44 days. Also, the “viability of MOC1 cells (in words)” value in data set [2] is recorded as “high viability”. Moreover, the viability at 72 h, 1 wt. % in data set [3] is around 95%. Moreover, the “cell attachment, survival and proliferation (in words)” value in data set [4] is “highest degrees of cell attachment and proliferation”. In addition, the “inflammatory reaction after injection (in words)” value in data set [5] was “does not cause a chronic inflammatory reaction”.

These data come from patent US12251449B2, “Synthetic multidomain peptide biomaterials that inhibit inducible nitric oxide synthase” (William Marsh Rice University, priority 2019, dated 2025).
